The values below come from US10351550B2, “Substituted quinazoline compounds and methods of use thereof” (Araxes Pharma LLC, priority 2015, dated 2019).

Marks after values point to notes of the source that are not given here.

The target in this experiment is T1, KRAS G12C 1-169, his-tagged protein, GDP-loaded (Homo sapiens, UniProt P01116, G12C).
T1 construct: KRAS G12C 1-169, his-tagged protein, GDP-loaded
The experiment can be described thus: Biochemical assay: covalent binding (% modification) to KRAS G12C by mass spectrometry. As for the experimental part: Test compounds were prepared as 10 mM stock solutions in DMSO (Fisher cat# BP-231-100). KRAS G12C 1-169, his-tagged protein, GDP-loaded was diluted to 2 μm in buffer (20 mM Hepes, 150 mM NaCl, 1 mM MgCl2). Compounds were tested for activity as follows:
Compounds were diluted to 50× final test concentration in DMSO in 96-well storage plates. Compound stock solutions were vortexed before use and observed carefully for any sign of precipitation. Dilutions were as follow: • 1. For 100 μM final compound concentration, compounds were diluted to 5000 μM (5 μl 10 mM compound stock+5 μl DMSO and mixed well by pipetting. • 2. For 30 μM final compound concentration, compounds were diluted to 1500 μM (3 μl 10 mM compound stock+17 μl DMSO) and mixed well by pipetting. • 3. For 10 μM final compound concentration, compounds were diluted to 500 μM (2 μl 10 mM compound stock+38 μl DMSO) and mixed well by pipetting. 49 μl of the stock protein solution was added to each well of a 96-well PCR plate (Fisher cat#1423027). 1 μl of the diluted 50× compounds were added to appropriate wells in the PCR plate using 12-channel pipettor. Reactions were mixed carefully and thoroughly by pipetting up/down with a 200·1 multi-channel pipettor. […] 5·1 of 2% formic acid (Fisher cat# A117) in DI H2O was then added to each well followed by mixing with a pipette. The plate was then resealed with aluminum seal and stored on dry ice until analyzed as described below.
The above described assays were analyzed by mass spectrometry according to one of the following two procedures:
The MS instrument is set to positive polarity, 2 GHz resolution, and low mass (1700) mode and allowed to equilibrate for 30 minutes. The instrument is then calibrated, switched to acquisition mode and the appropriate method loaded.
After another 30 minute equilibration time, a blank batch (i.e., buffer) is run to ensure equipment is operating properly. The samples are thawed at 37° C. for 10 minutes, briefly centrifuged, and transfer to the bench top. Wells A1 and H12 are spiked with 1 uL 500 uM internal standard peptide, and the plates centrifuged at 2000×g for 5 minutes. The method is then run and masses of each individual well recorded.
The masses (for which integration data is desired) for each well are pasted into the platemap and exported from the analysis. Masses for the internal standards are exported as well. The data at 50 ppm is extracted for the +19 charge state, and identity of well A1 is assigned using the internal standard spike and integrated. Peak data is exported as a TOF list and the above steps are repeated individually, for the +20, 21, 22, 23, 24, and 25 charge states.
The masses and peak intensities of KRAS G12C protein species were measured using a Dionex RSLCnano system (Thermo Scientific) connected to a Q Exactive Plus mass spectrometer (Thermo Scientific).
[…] of sample was each loaded onto a Aeris™ 3.6 μm WIDEPORE C4 200 Å, LC Column 50×2.1 mm column maintained at 40° C. at a flow rate of 600 μl min^1 with 20% Solvent A (0.1% formic acid in H2O) and 80% Solvent B (0.1% formic acid in acetonitrile). The liquid chromatography conditions were 20% solvent B for 1 min, 20% to 60% solvent B for 1.5 min, 60% to 90% solvent for 0.5 min, 90% solvent B for 0.2 min, 90% to 20% solvent B for 0.2 min, and then equilibrated for 1.6 min before the following sample injection. The flow rate was maintained at 600 μl min^1 throughout the sample analysis.
The mass spectrometer was operated in profile mode at a resolution of 17500, 5 microscans, using 50 msec max injection time and an AGC target of 1e6, and a full mass range from 800-1850 m/z was recorded. The HCD trapping gas was optimized for maximum sensitivity for intact proteins. The ionization method was electrospray ionization, which used a spray voltage of 4 kV, sheath gas flow set to 50 au, auxiliary gas flow set to 10 au and sweep gas flow set to 1 au. […]

Setting [1] is: binding activity determined at 2 hours.
[2] abbreviates: binding activity determined at 4 hours.
[3] abbreviates: binding activity determined at 6 hours.

Regarding `C=CC(=O)N1CC(n2cnc3c(Cl)c(-c4cc(O)cc5ccccc45)c(N)cc3c2=O)C1` [Compound 12, 3-(1-acryloylazetidin-3-yl)-6-amino-8-chloro-7-(3-hydroxynaphthalen-1-yl)quinazolin-4(3H)-one], the Binding % result under setting [1] is “++ (++ indicates binding activity from 5% up to 50%)”. Consider `C=CC(=O)N1CC(n2cnc3c(F)c(-c4c(O)cccc4F)c(Cl)cc3c2=O)C1` [Compound 4, 3-(1-acryloylazetidin-3-yl)-6-chloro-8-fluoro-7-(2-fluoro-6-hydroxyphenyl)quinazolin-4(3H)-one], for which, under setting [2], the Binding % entry is recorded as “++^† (++ indicates binding activity from 5% up to 50%)”. For the compound `C=CC(=O)N1CC(n2cnc3c(F)c(-c4c(C)ccc5cn[nH]c45)c(Cl)cc3c2=O)C1` [Compound 8, 3-(1-acryloylazetidin-3-yl)-6-chloro-8-fluoro-7-(6-methyl-1H-indazol-7-yl)quinazolin-4(3H)-one], the Binding % result under setting [3] is “++^‡ (++ indicates binding activity from 5% up to 50%)”. For the compound `C=CC(=O)N1CC(n2cnc3cc(-c4c(O)cccc4F)ccc3c2=O)C1` [Compound 5, 3-(1-acryloylazetidin-3-yl)-7-(2-fluoro-6-hydroxyphenyl) quinazolin-4(3H)-one], under setting [3], the Binding % result is listed as “++^‡ (++ indicates binding activity from 5% up to 50%)”.

For `C=CC(=O)N1CC(n2cnc3c(Cl)c(-c4cc(O)cc5ccccc45)cc(O)c3c2=O)C1` [Compound 14, 3-(1-acryloylazetidin-3-yl)-8-chloro-5-hydroxy-7-(3-hydroxynaphthalen-1-yl)quinazolin-4(3H)-one], the Binding % entry under setting [1] is given as “+++ (+++ indicates binding activity 50% or greater)”.

In the case of `C=CC(=O)Nc1cnc2c(F)c(-c3c(O)cccc3F)c(Cl)cc2c1N1CCN(C(C)=O)CC1` [Compound 3, N-(4-(4-acetylpiperazin-1-yl)-6-chloro-8-fluoro-7-(2-fluoro-6-hydroxyphenyl)quinolin-3-yl)acrylamide], the Binding % result under setting [2] is on record as “++^† (++ indicates binding activity from 5% up to 50%)”. Regarding `C=CC(=O)N1CC(n2cnc3c(F)cc(-c4ccccc4O)cc3c2=O)C1` [Compound 9, 3-(1-acryloylazetidin-3-yl)-8-fluoro-6-(2-hydroxyphenyl) quinazolin-4(3H)-one], under setting [3], the Binding % entry is “+^‡ (+ indicates binding activity up to 5%)”. Regarding `C=CC(=O)N1CC(n2cnc3c(Cl)c(-c4cc(O)cc5ccccc45)c(F)cc3c2=O)C1` [Compound 10, 3-(1-acryloylazetidin-3-yl)-8-chloro-6-fluoro-7-(3-hydroxynaphthalen-1-yl)quinazolin-4(3H)-one], the Binding % result was “+++; (+++ indicates binding activity 50% or greater)” under setting [1] and “+++^‡ (+++ indicates binding activity 50% or greater)” under setting [3]. Turning to `C=CC(=O)N1CCCC(n2cnc3c(F)c(-c4c(O)cccc4F)c(Cl)cc3c2=O)C1` (stereo not shown) [Compound 1, 3-(1-acryloylpiperidin-3-yl)-6-chloro-8-fluoro-7-(2-fluoro-6-hydroxyphenyl)quinazolin-4(3H)-one], the Binding % result under setting [2] was “++^† (++ indicates binding activity from 5% up to 50%)”. With `C=CC(=O)N1CC(n2cnc3c(F)c(-c4cc(O)cc5ccccc45)c(Cl)cc3c2=O)C1` [Compound 7, 3-(1-acryloylazetidin-3-yl)-6-chloro-8-fluoro-7-(3-hydroxynaphthalen-1-yl)quinazolin-4(3H)-one], the Binding % entry reads like this: under setting [1], “+++; (+++ indicates binding activity 50% or greater)”; under setting [3], “+++^‡ (+++ indicates binding activity 50% or greater)”. `C=CC(=O)NC1CC(n2cnc3c(F)c(-c4c(O)cccc4F)c(Cl)cc3c2=O)C1` (stereo not shown) [Compound 2, N-(3-(6-chloro-8-fluoro-7-(2-fluoro-6-hydroxyphenyl)-4-oxoquinazolin-3(4H)-yl)cyclobutyl)acrylamide]: the Binding % entry under setting [2] is “++^† (++ indicates binding activity from 5% up to 50%)”. For the same compound, for the setting “time and concentration not given”, the “covalently bind to KRAS G12C, extent (% of protein in the well covalently bound to test compound)” value is “greater than 30%”. On to `C=CC(=O)N1CC(n2cnc3c(F)c(-c4cc(O)ccc4Cl)c(Cl)cc3c2=O)C1` [Compound 6, 3-(1-acryloylazetidin-3-yl)-6-chloro-7-(2-chloro-5-hydroxyphenyl)-8-fluoroquinazolin-4(3H)-one], for which the Binding % result is listed as “++; (++ indicates binding activity from 5% up to 50%)” under setting [1] and “+++^† (+++ indicates binding activity 50% or greater)” under setting [2].
